Source: US7973064B2, “Method and composition for potentiating an opiate analgesic” (The Board of Trustees of the University of Illinois, priority 2001, dated 2011)
Entries after “also recorded” stand apart in the source; their conditions may differ. Square brackets hold non-standard residues; d marks the D form. Peptide text beside a SMILES is read from it.

How the values were obtained:
[1] = test system: Male Sprague-Dawley rats; assay: Tail flick analgesia in rats; format: in vivo, rat; conditions: for effect on tail flick latency (analgesia), drug alone: morphine 8 mg/kg s.c. or BQ123 10 μg i.c.v.
Procedure: (§1) Male Sprague-Dawley rats weighing 225 to 250 g (Sasco King Animal Co., Madison, Wis.) were housed in a room with controlled temperature (23±1° C.), humidity (50±10%), and light (6:00 a.m. to 6:00 p.m.) for at least four days prior to testing. Food and water were available to the rats continuously.
(§2) The rats were divided into four groups (FIG. 1): group 1 received vehicle (saline 5 μl, i.c.v. over 5 minutes) and vehicle (saline 100 μl/kg s.c.); group 2 received vehicle (saline 100 μl/kg, s.c.) and BQ123 (10 μg, i.c.v. in a volume of 5 μl over 5 minutes); group 3 received morphine (8 mg/kg, s.c. in a volume of 100 μl/kg) and vehicle (saline 100 μl/kg, s.c.); and group 4 received morphine (8 mg/kg, s.c. in a volume of 100 μl/kg) and BQ123 (10 μg, i.c.v. in a volume of 5 μl over 5 minutes). Vehicle or BQ123 treatment was performed 30 minutes prior to morphine administration.
(§3) Measurement of analgesic effect: The analgesic response to morphine was determined by the tail flick method. The tail flick latencies to thermal stimulation were determined before and 30, 60, 90, 120, 180, 210, 240, 270, 300, and 360 minutes after the morphine injection. […] A cutoff time of 10 seconds was used to prevent damage to the tail. The basal latency was subtracted from that induced by morphine. […] The differences in analgesic response to different doses of morphine were compared by using student's t test. A value of P<0.05 was considered significant.

[2] = test system: mice; assay: Tail flick analgesia in mice; format: in vivo, mouse; conditions: morphine 2, 4, and 8 mg/kg s.c.
Procedure: (§4) Tests also were performed on mice. The mice were housed and fed similar to the rats as described above taking into consideration the size differential between rats and mice. The mice were divided into groups identical to the rats, but administered different amounts of vehicle, opiate analgesic, and endothelin antagonist, as disclosed hereafter.
as §3

[3] = test system: Male Sprague-Dawley rats; assay: Colonic temperature in rats; format: in vivo, rat; conditions: for effect on body temperature, drug alone: morphine 8 mg/kg s.c. or BQ123 10 μg i.c.v.
Procedure: as §1, §2
Measurement of colonic temperature: The change in temperature in response to morphine was determined. The colonic temperature of each rat was recorded before and various times after morphine injection for a period of 360 minutes using a tele-thermometer. […] Rats used to measure tail flick latencies also were used to determine the colonic temperature. The differences in temperature response between various groups were compared by using student's t test. A value of P<0.05 was considered significant.

[4] = test system: Male Sprague-Dawley rats; assay: Catalepsy bar test in rats; format: in vivo, rat; conditions: for catalepsy (bar test), drug alone: 45 minutes after morphine or vehicle, morphine 8 mg/kg s.c. or BQ123 10 μg i.c.v.
Procedure: as §1, §2
Measurement of catalepsy: Rats were tested for catalepsy by the bar test. An aluminum bar 5 mm in diameter was placed 4 cm above the floor, and the animal's forepaw was gently placed on the bar. The time required for the animal to place at least one paw on the floor was measured with a maximum term of observation of 180 seconds. Behavioral evaluation of catalepsy was performed 45 minutes after the administration of morphine or its vehicle. Statistical tests were performed as described above.

[5] = Body weight in rats; format: in vivo, rat; conditions: before any drug and seven hours after morphine, BQ123 10 μg i.c.v., morphine 8 mg/kg s.c.
Procedure: as §2
Effect on body weight: Body weight was measured in all groups of rats of FIG. 1. […] Body weight was measured before administering any drug and at the end of the experiment, i.e., seven hours after the administration of morphine.

[6] = test system: mice; conditions: BQ123 and morphine 2, 4, or 8 mg/kg
Procedure: as §4

[7] = Body weight in mice given BQ123 and morphine; format: in vivo, mouse; conditions: BQ123 and morphine 2, 4, or 8 mg/kg
Procedure: Tests also were performed on mice.

[8] = test system: mice rendered tolerant and dependent on morphine; assay: Morphine tolerance in mice; format: in vivo, mouse; conditions: FIGS. 6-8
Source text: (§5) FIGS. 6-8 illustrate the ability of an endothelin antagonist to […] opiate analgesic tolerance in mice and rats rendered tolerant and dependent on morphine. The test method used to generate the data set forth in FIGS. 6-8 is disclosed in H. N. Bhargava et al., J. Pharmacol. Exp. Ther., 252(3), pp. 901-907 (1990). The method disclosed therein was modified slightly for mice because the smaller mice could not survive the morphine dose administered to the rats.

[9] = test system: morphine tolerant dependent rats; assay: Tolerance to analgesic effect in morphine tolerant dependent rats; format: in vivo, rat; conditions: 6 morphine pellets in 7-day period, BQ123 10 μg i.c.v. twice a day for 7 days
Procedure: as §5
(§6) The effect of BQ123 (3 μg, i.c.v.) on naloxone-precipitated morphine withdrawal also was determined in mice. […] Tests also were performed to determine tolerance to analgesic effect in morphine tolerant dependent rats (6 morphine pellets in 7-day period).

[10] = test system: morphine tolerant mice; assay: Naloxone-precipitated morphine withdrawal in mice; format: in vivo, mouse; conditions: 1 morphine 75 mg pellet for 3 days, naloxone 1 mg/kg i.p., BQ123 3 μg i.c.v.
Procedure: as §6

[11] = test system: rat sciatic nerve; conditions: ET-1 200 to 800 μM applied to sciatic nerve, pretreatment; cited from earlier work
[12] = test system: streptozotocin-induced diabetic rat; conditions: cited from earlier work; for increase in tactile allodynia thresholds: systemic administration
[13] = test system: Cr1:CD-1(ICR)BR mice and CXBK mice; conditions: ET-1 intraperitoneally, through μ1 sensitive pathway; cited from earlier work
[14] = BQ123 10 μg i.c.v. 30 minutes prior to morphine 8 mg/kg s.c.

## CC(C)C[C@@H]1NC(=O)[C@@H](C(C)C)NC(=O)[C@@H]2CCCN2C(=O)[C@@H](CC(=O)O)NC(=O)[C@@H](Cc2c[nH]c3ccccc23)NC1=O [BQ123, cyclo(-D-Trp-D-Asp-Pro-D-Val-Leu-)] (cyclo(L[dW][dD]P[dV]))
[1]; [14]
  duration of morphine analgesia in BQ123 pretreated rats: more than six
  effect of BQ123 on analgesic effect of morphine: significantly potentiated
[1]
  effect on tail flick latency (analgesia), drug alone: did not produce any significant effect on tail flick latency
[2]; BQ123 3 μg i.c.v.
  duration of morphine analgesia with BQ123: more than 4 hours
  effect of BQ123 on morphine analgesia: significantly potentiated morphine analgesia; also recorded: analgesia was potentiated
[3]; [14]
  duration of morphine hyperthermia in BQ123 pretreated rats: more than six
  effect of BQ123 on hyperthermic effect of morphine: significantly potentiated
[3]
  effect on body temperature, drug alone: did not produce any significant effect on body temperature
[4]
  catalepsy (bar test), drug alone: did not produce any cataleptic effect
[4]; [14]
  effect of BQ123 pretreatment on morphine-induced catalepsy: did not produce any change in morphine-induced catalepsy
[5]
  change in body weight: no change in body weight
[6]
  effect of BQ123 on morphine-induced hypothermia: not affected
[7]
  effect on body weight: not affected
[8]
  morphine tolerance after treatment with endothelin antagonist: reduced morphine tolerance
[9]
  development of tolerance to morphine analgesic effect: did not become tolerant to morphine
[10]
  effect on naloxone-precipitated morphine withdrawal symptoms: did not affect hypothermia, loss of body weight, jumping behavior, falls, diarrhea, fecal boli, urination, ptosis, writhing, and rearing behavior during withdrawal; also recorded: no effect on temperature, body weight, urination, diarrhea, jumping behavior, number of falls, ptosis, and grooming
[11]
  effect on ET-1 induced hindpaw flinching: blocked

## CN1CC[C@]23c4c5ccc(O)c4O[C@H]2[C@@H](O)C=C[C@H]3[C@H]1C5 [morphine]
[1]; morphine 8 mg/kg s.c.
  time after administration until which tail flick latencies were significantly increased, morphine alone: three
[1]
  effect on tail flick latency (analgesia), drug alone: produced significant analgesia
[1]; morphine 8 mg/kg s.c., control about 2 seconds
  tail flick latency: more than 10 seconds
[2]
  duration of increase in tail flick latency, morphine alone: 1.5 h
  effect on mouse tail flick latency, morphine alone: significant increase in mouse tail flick latency
[3]; morphine 8 mg/kg s.c.
  duration of hyperthermia, morphine alone: about four
[3]
  effect on body temperature, drug alone: produced significant hyperthermia
[4]
  catalepsy (bar test), drug alone: significantly increased catalepsy
[5]
  change in body weight: neither morphine nor BQ123 produced any acute effect on body weight
[12]
  increase in tactile allodynia thresholds: 90%
[11]
  effect on ET-1 induced hindpaw flinching: completely blocked
[13]
  effect on ET-1 induced nociception: could be blocked by morphine

## CCCCN(CCCC)C(=O)CN1C[C@H](c2ccc3c(c2)OCO3)[C@@H](C(=O)O)[C@@H]1c1ccc(OC)cc1 [ABT-627]
[12]; in drinking water for 7 days
  antinociceptive effect following chronic administration: maintained
[12]
  increase in tactile allodynia thresholds: 40 to 50%

## Cc1noc(NS(=O)(=O)c2cccc3c(N(C)C)cccc23)c1C [BMS182874]
[8]
  morphine tolerance after treatment with endothelin antagonist: reduced morphine tolerance
